Source: patent US20060153933A1 (priority 2002, published 2006)
Values joined by “and” are separate entries in the source; they are usually repeats but may differ in a detail not shown here. Equal entries are not always repeated. Where two headings read alike, the source gives them in different places.

How the values were obtained:
Format in all cases: in vivo
[1] = test system: Plasmopara viticola (PLASVI)
[2] = test system: Phytophthora infestans (PHYTIN); conditions: 1DC
[3] = test system: Plasmopara viticola (PLASVI); experiment: whole plant or invertebrate; conditions: for pest or weed control at 1.85 ppm: 1.85 ppm alone; for pest or weed control at 5.56 ppm: 5.56 ppm alone
[4] = test system: Phytophthora infestans (PHYTIN); experiment: whole plant or invertebrate; conditions: for pest or weed control at 1.85 ppm: read-out: % Disease Control (observed); for pest or weed control at 0.62 ppm: 0.62 ppm alone; for pest or weed control at 5.56 ppm: 5.56 ppm alone
[5] = Plasmopara viticola, 72 h, read-out: % Disease Control (observed), 3DP
[6] = Phytophthora infestans, 72 h, read-out: % Disease Control (observed), 3DP
[7] = Plasmopara viticola, 24 h, read-out: % Disease Control (observed), 1DP
[8] = Plasmopara viticola, 24 h, read-out: % Disease Control (observed), 1DP, Table 14
[9] = Plasmopara viticola, 48 h, read-out: % Disease Control (observed), 2DP
[10] = Plasmopara viticola, 168 h, read-out: % Disease Control (observed), 7DP
[11] = Phytophthora infestans, 48 h, read-out: % Disease Control (observed), 2DP

Structure (SMILES): COc1ccc(C(=CC(=O)N2CCOCC2)c2ccc(Cl)cc2)cc1OC [Dimethomorph, dimethomorph]
- % Disease Control (Observed) ([1]; 1DC, 5.56 ppm alone): 8.8%
- % Disease Control (Observed) ([2]; 5.56 ppm alone): 0.0%
- % Disease Control (Observed) ([2]; 16.70 ppm alone): 29.8%
- % Disease Control (Observed) ([2]; 50.00 ppm alone): 33.3%
- % Disease Control (Observed) ([3]; PLASVI 3DP, applied alone at 0.5 ppm): 3.5%
- % Disease Control (Observed) ([3]; PLASVI 3DP, applied alone at 1.4 ppm): 22.8%
- pest or weed control at 1.85 ppm [3, 5]: 5.3%
- pest or weed control at 5.56 ppm [3, 5]: 63.2%
- % Disease Control (Observed) ([4]; PHYTIN 3DP, applied alone at 1.4 ppm): 3.5%
- pest or weed control at 1.85 ppm ([4]; Phytophthora infestans, 72 h): 12.3%
- pest or weed control at 0.62 ppm [4, 6]: 0%

Structure (SMILES): CC[C@H](CS(=O)(=O)C(C)c1ccc(C#N)cc1)NC(=O)Oc1ccc(F)cc1 (stereo partly drawn) [Formula III, 4-fluorophenyl(1S)-1-({[(1R,S)-(4-cyanophenyl)ethyl]sulfonyl}methyl)-propylcarbamate]
- % Disease Control (Observed) ([1]; 1DC, 0.60 ppm alone): 5.3%
- % Disease Control (Observed) ([1]; 1DC, 0.90 ppm alone): 0.0%
- % Disease Control (Observed) ([1]; 1DC, 1.85 ppm alone): 17.5%
- % Disease Control (Observed) ([1]; 1DC, 2.80 ppm alone): 8.8% and 16.0%
- % Disease Control (Observed) ([1]; 1DC, 5.56 ppm alone): 17.5%
- % Disease Control (Observed) ([1]; 1DC, 16.70 ppm alone): 45.6%
- % Disease Control (Observed) ([2]; 0.62 ppm alone): 0.0%
- % Disease Control (Observed) ([2]; 0.90 ppm alone): 0.0%
- % Disease Control (Observed) ([2]; 1.85 ppm alone): 35.1%
- % Disease Control (Observed) ([2]; 1.90 ppm alone): 21.1%
- % Disease Control (Observed) ([2]; 5.56 ppm alone): 5.3%
- % Disease Control (Observed) ([2]; 8.30 ppm alone): 8.8%
- % Disease Control (Observed) ([2]; 16.70 ppm alone): 31.6%
- % Disease Control (Observed) ([3]; 1DP, 0.20 ppm alone): 8.8%
- % Disease Control (Observed) ([3]; 1DP, 0.67 ppm alone): 49.1%
- % Disease Control (Observed) ([3]; 4DP, 1.90 ppm alone): 26.30%
- % Disease Control (Observed) ([3]; PLASVI 2DP, applied alone at 0.4 ppm): 8.8%
- % Disease Control (Observed) ([3]; PLASVI 2DP, applied alone at 1.1 ppm): 22.8%
- % Disease Control (Observed) ([3]; PLASVI 2DP, applied alone at 1.85 ppm): 7.0%
- % Disease Control (Observed) ([3]; PLASVI 2DP, applied alone at 3.3 ppm): 42.1%
- % Disease Control (Observed) ([3]; PLASVI 2DP, applied alone at 5.56 ppm): 19.3%
- % Disease Control (Observed) ([3]; PLASVI 3DP, applied alone at 0.4 ppm): 1.8%
- % Disease Control (Observed) ([3]; PLASVI 3DP, applied alone at 1.1 ppm): 12.3%
- % Disease Control (Observed) ([3]; PLASVI 3DP, applied alone at 5.56 ppm): 31.6%
- % Disease Control (Observed) ([3]; PLASVI 6DP, applied alone at 3.3 ppm): 12.3%
- pest or weed control at 0.2 ppm ([3]; Plasmopara viticola, 24 h, read-out: % Disease Control (observed), 1DP, 0.20 ppm alone): 1.8%
- pest or weed control at 0.21 ppm ([3]; Plasmopara viticola, 24 h, read-out: % Disease Control (observed), 1DP, 0.21 ppm alone): 14%
- pest or weed control at 0.62 ppm ([3]; Plasmopara viticola, 24 h, read-out: % Disease Control (observed), 1DP, 0.62 ppm alone): 17.5%
- pest or weed control at 1.85 ppm [3, 7]: 71.9%
- pest or weed control at 5.56 ppm [3, 7]: 78.9%
- pest or weed control at 1.85 ppm [3, 8]: 24.6%
- pest or weed control at 5.56 ppm [3, 8]: 78.9%
- pest or weed control at 0.62 ppm ([3]; Plasmopara viticola, 48 h, read-out: % Disease Control (observed), 2DP, 0.62 ppm alone): 1.8%
- pest or weed control at 1.85 ppm [3, 9]: 15.8%
- pest or weed control at 5.56 ppm [3, 9]: 56.1%
- pest or weed control at 0.21 ppm ([3]; Plasmopara viticola, 72 h, read-out: % Disease Control (observed), 3DP, 0.21 ppm alone): 0%
- pest or weed control at 0.3 ppm ([3]; Plasmopara viticola, 72 h, read-out: % Disease Control (observed), 3DP, 0.30 ppm alone): 0%
- pest or weed control at 5.56 ppm [3, 5]: 40.4%
- pest or weed control at 1.85 ppm [3, 10]: 14%
- pest or weed control at 5.56 ppm [3, 10]: 52.6%
- % Disease Control (Observed) ([4]; 4DP, 0.60 ppm alone): 15.8%
- % Disease Control (Observed) ([4]; 4DP, 2.80 ppm alone): 34.2%
- % Disease Control (Observed) ([4]; 4DP, 5.60 ppm alone): 21.10%
- % Disease Control (Observed) ([4]; PHYTIN 2DP, applied alone at 0.4 ppm): 5.3%
- % Disease Control (Observed) ([4]; PHYTIN 2DP, applied alone at 1.1 ppm): 15.8%
- % Disease Control (Observed) ([4]; PHYTIN 2DP, applied alone at 5.56 ppm): 12.3%
- % Disease Control (Observed) ([4]; PHYTIN 3DP, applied alone at 0.62 ppm): 3.5%
- % Disease Control (Observed) ([4]; PHYTIN 3DP, applied alone at 1.1 ppm): 12.3%
- % Disease Control (Observed) ([4]; PHYTIN 6DP, applied alone at 1.1 ppm): 3.5%
- % Disease Control (Observed) ([4]; PHYTIN 6DP, applied alone at 3.3 ppm): 33.3%
- pest or weed control at 0.6 ppm ([4]; Phytophthora infestans, 24 h, read-out: % Disease Control (observed), 1DP, 0.60 ppm alone): 3.5%
- pest or weed control at 1.9 ppm ([4]; Phytophthora infestans, 24 h, read-out: % Disease Control (observed), 1DP, 1.90 ppm alone): 78.6%
- pest or weed control at 0.62 ppm [4, 11]: 8.8%
- pest or weed control at 5.56 ppm [4, 11]: 12.3%
- pest or weed control at 0.21 ppm ([4]; Phytophthora infestans, 72 h, read-out: % Disease Control (observed), 3DP, 0.21 ppm alone): 0%
- pest or weed control at 0.6 ppm ([4]; Phytophthora infestans, 72 h, read-out: % Disease Control (observed), 3DP, 0.60 ppm alone): 73.7%
- pest or weed control at 0.9 ppm ([4]; Phytophthora infestans, 72 h, read-out: % Disease Control (observed), 3DP, 0.90 ppm alone): 1.8%
- pest or weed control at 2.8 ppm ([4]; Phytophthora infestans, 72 h, read-out: % Disease Control (observed), 3DP, 2.80 ppm alone): 47.4%
- pest or weed control at 5.56 ppm [4, 6]: 57.9%
- pest or weed control at 5.56 ppm ([4]; Phytophthora infestans, 72 h, read-out: % Disease Control (observed), Table 10, PHYTIN (3DP) as printed): 31.6%
- pest or weed control at 1.85 ppm ([4]; Phytophthora infestans, 96 h): 38.6%
- % Disease Control (Observed) ([4]; in vivo): 26.3%

Structure (SMILES): COCC(=O)N(c1c(C)cccc1C)[C@H](C)C(=O)OC [Mefenoxam, mefenoxam]
- % Disease Control (Observed) ([1]; in vivo): 94.7%
- % Disease Control (Observed) ([2]; 1.85 ppm alone): 56.1%
- % Disease Control (Observed) ([3]; 1DP, 0.21 ppm alone): 33.3%
- % Disease Control (Observed) ([3]; 1DP, 0.62 ppm alone): 82.5%
- % Disease Control (Observed) ([3]; PLASVI 2DP, applied alone at 11.1 ppm): 38.6%
- % Disease Control (Observed) ([3]; PLASVI 2DP, applied alone at 33.3 ppm): 66.7%
- % Disease Control (Observed) ([4]; 1DP, 0.60 ppm alone): 12.3%
- % Disease Control (Observed) ([4]; PHYTIN 2DP, applied alone at 3.7 ppm): 12.3%
- % Disease Control (Observed) ([4]; PHYTIN 2DP, applied alone at 11.1 ppm): 17.5%
